# Experimental data published in the supplement of paper PMC10307832.
# Compound: N#CC1(c2ccc(NC(=O)c3cccnc3NCc3ccncc3)cc2)CCCC1 [Apatinib] + O=C(c1cc(Cc2n[nH]c(=O)c3ccccc23)ccc1F)N1CCN(C(=O)C2CC2)CC1 [Olaparib] (partner 8 µM)
# Assay: relative viability (nuclei count vs DMSO), 5 days (fraction); higher = more cells survive
# Conditions: first compound 0.08 µM
# Method in brief: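 Lung cancer cell lines, seeded in 1536-well plates, were treated the following day by pin tool with a single drug or with five library-drug doses (not always all listed) in √10 steps on top of a fixed anchor-drug dose. Cells were fixed and nuclei stained in one step after 5 days, and nuclei were counted. Relative viability is the nuclei count for treated wells divided by that for vehicle wells, reported as medians of duplicate plates.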
row,Cell Line,relative viability
1,201T,0.872
2,A549,0.329
3,A-427,0.66
4,BEN,1.35
5,CAL-12T,0.723
6,COR-L23,0.355
7,COR-L 105,0.794
8,Calu-6,0.618
9,ChaGo-K-1,0.47
10,EBC-1,0.76
11,EKVX,0.801
12,EMC-BAC-2,0.57
13,EPLC-272H,0.759
14,H3255,0.621
15,HARA,0.761
16,HCC-15,0.657
17,HCC-44,0.989
18,HCC-78,0.803
19,HCC-366,0.435
20,HCC-827,0.68
21,HOP-62,0.328
22,IA-LM,0.765
23,LC-2-ad,0.747
24,LCLC-97TM1,0.524
25,LCLC-103H,0.753
26,LK-2,0.903
27,LOU-NH91,0.976

row,Cell Line,relative viability
1,LU99A,0.286
2,LXF-289,1.03
3,NCI-H23,0.305
4,NCI-H322M,0.791
5,NCI-H358,0.681
6,NCI-H441,0.684
7,NCI-H520,0.375
8,NCI-H522,0.667
9,NCI-H596,0.822
10,NCI-H647,0.65
11,NCI-H650,0.35
12,NCI-H661,0.719
13,NCI-H727,0.812
14,NCI-H838,0.853
15,NCI-H1299,1.03
16,NCI-H1355,0.787
17,NCI-H1395,0.485
18,NCI-H1437,0.61
19,NCI-H1648,0.934
20,NCI-H1650,0.827
21,NCI-H1651,0.192
22,NCI-H1666,0.803
23,NCI-H1703,0.512
24,NCI-H1734,0.675
25,NCI-H1755,0.846
26,NCI-H1792,0.416
27,NCI-H1793,0.959

# Same assay, conditions: first compound 0.253 µM
row,Cell Line,relative viability
1,201T,0.817
2,A549,0.382
3,A-427,0.71
4,ABC-1,0.957
5,BEN,1.24
6,CAL-12T,0.673
7,COR-L23,0.377
8,COR-L 105,0.802
9,Calu-6,0.648
10,ChaGo-K-1,0.523
11,EBC-1,0.698
12,EKVX,0.793
13,EMC-BAC-2,0.507
14,EPLC-272H,0.806
15,H3255,0.627
16,HARA,0.582
17,HCC-15,0.76
18,HCC-44,1
19,HCC-78,0.696
20,HCC-366,0.372
21,HCC-827,0.628
22,HOP-62,0.396
23,IA-LM,0.766
24,LC-2-ad,0.658
25,LCLC-97TM1,0.541
26,LCLC-103H,0.713
27,LK-2,0.581

row,Cell Line,relative viability
1,LOU-NH91,0.885
2,LU99A,0.269
3,LXF-289,1.18
4,NCI-H23,0.322
5,NCI-H322M,0.759
6,NCI-H358,0.559
7,NCI-H441,0.612
8,NCI-H520,0.32
9,NCI-H522,0.644
10,NCI-H596,0.73
11,NCI-H647,0.794
12,NCI-H650,0.458
13,NCI-H661,0.726
14,NCI-H838,0.831
15,NCI-H1299,1.01
16,NCI-H1355,0.798
17,NCI-H1395,0.459
18,NCI-H1437,0.663
19,NCI-H1648,0.854
20,NCI-H1650,0.787
21,NCI-H1651,0.206
22,NCI-H1666,0.8
23,NCI-H1703,0.21
24,NCI-H1734,0.622
25,NCI-H1755,0.892
26,NCI-H1792,0.588
27,NCI-H1793,0.897

# Same assay, conditions: first compound 0.8 µM
row,Cell Line,relative viability
1,201T,0.789
2,A549,0.414
3,A-427,0.73
4,ABC-1,0.626
5,BEN,1.13
6,CAL-12T,0.647
7,COR-L23,0.324
8,COR-L 105,0.737
9,Calu-6,0.541
10,ChaGo-K-1,0.443
11,EBC-1,0.65
12,EKVX,0.88
13,EMC-BAC-2,0.44
14,EPLC-272H,0.822
15,H3255,0.609
16,HARA,0.848
17,HCC-15,0.686
18,HCC-44,0.924
19,HCC-78,0.878
20,HCC-366,0.249
21,HCC-827,0.644
22,HOP-62,0.407
23,IA-LM,0.769
24,LC-2-ad,0.699
25,LCLC-97TM1,0.353
26,LCLC-103H,0.745
27,LK-2,0.64
28,LOU-NH91,0.783

row,Cell Line,relative viability
1,LU99A,0.276
2,LXF-289,0.993
3,NCI-H23,0.301
4,NCI-H322M,0.686
5,NCI-H358,0.553
6,NCI-H441,0.505
7,NCI-H520,0.401
8,NCI-H522,0.615
9,NCI-H596,0.722
10,NCI-H647,0.508
11,NCI-H650,0.439
12,NCI-H661,0.724
13,NCI-H727,0.725
14,NCI-H838,0.762
15,NCI-H1299,0.927
16,NCI-H1355,0.745
17,NCI-H1395,0.488
18,NCI-H1437,0.57
19,NCI-H1648,0.761
20,NCI-H1650,0.799
21,NCI-H1651,0.186
22,NCI-H1666,0.705
23,NCI-H1703,0.173
24,NCI-H1734,0.61
25,NCI-H1755,0.835
26,NCI-H1792,0.341
27,NCI-H1793,0.813

# Same assay, conditions: first compound 2.53 µM
row,Cell Line,relative viability
1,201T,0.9
2,A549,0.367
3,A-427,0.641
4,ABC-1,0.769
5,BEN,0.987
6,CAL-12T,0.638
7,COR-L23,0.273
8,COR-L 105,0.543
9,Calu-6,0.426
10,ChaGo-K-1,0.408
11,EBC-1,0.588
12,EKVX,0.734
13,EMC-BAC-2,0.363
14,EPLC-272H,0.605
15,H3255,0.516
16,HCC-15,0.615
17,HCC-44,0.97
18,HCC-78,0.711
19,HCC-366,0.292
20,HCC-827,0.54
21,HOP-62,0.354
22,IA-LM,0.607
23,LC-2-ad,0.743
24,LCLC-97TM1,0.351
25,LCLC-103H,0.712
26,LK-2,0.63
27,LOU-NH91,0.87

row,Cell Line,relative viability
1,LU99A,0.252
2,LXF-289,0.956
3,NCI-H23,0.316
4,NCI-H322M,0.772
5,NCI-H358,0.569
6,NCI-H441,0.561
7,NCI-H520,0.28
8,NCI-H522,0.692
9,NCI-H596,0.65
10,NCI-H647,0.418
11,NCI-H650,0.365
12,NCI-H661,0.687
13,NCI-H727,0.622
14,NCI-H838,0.69
15,NCI-H1299,0.873
16,NCI-H1355,0.647
17,NCI-H1395,0.452
18,NCI-H1437,0.574
19,NCI-H1648,0.501
20,NCI-H1650,0.761
21,NCI-H1651,0.17
22,NCI-H1666,0.743
23,NCI-H1703,0.159
24,NCI-H1734,0.56
25,NCI-H1755,0.876
26,NCI-H1792,0.224
27,NCI-H1793,0.798

# Same assay, conditions: first compound 8 µM
row,Cell Line,relative viability
1,201T,0.749
2,A549,0.302
3,A-427,0.612
4,ABC-1,0.638
5,BEN,0.774
6,CAL-12T,0.583
7,COR-L23,0.286
8,COR-L 105,0.672
9,Calu-6,0.393
10,ChaGo-K-1,0.344
11,EBC-1,0.472
12,EKVX,0.587
13,EMC-BAC-2,0.319
14,EPLC-272H,0.604
15,H3255,0.455
16,HARA,0.706
17,HCC-15,0.54
18,HCC-44,0.971
19,HCC-78,0.768

row,Cell Line,relative viability
1,HCC-366,0.245
2,HCC-827,0.561
3,HOP-62,0.282
4,IA-LM,0.396
5,LC-2-ad,0.668
6,LCLC-97TM1,0.172
7,LCLC-103H,0.753
8,LK-2,0.515
9,LOU-NH91,0.825
10,LU99A,0.207
11,LXF-289,0.904
12,NCI-H23,0.238
13,NCI-H322M,0.805
14,NCI-H358,0.453
15,NCI-H441,0.367
16,NCI-H520,0.314
17,NCI-H522,0.584
18,NCI-H596,0.634
19,NCI-H647,0.305
